Measured values as given in a melting point compilation (Tetko et al.; mined from patent text by program, amines drawn as free bases though some values may be those of a salt).

SMILES | melting point [°C]
O=C(O)Cc1cccc(OCc2ccccc2Cl)c1OCc1ccccc1Cl | 102 to 104
O=C(CCCN1CCN(c2ccc(CO)c(Cl)c2)CC1)c1cccs1 | 131 to 133
c1cc(N2CCOCC2)ccn1 | 93 to 95
COc1ccccc1-c1[nH]nc2c1C(=O)c1c(NC(C)=O)cccc1-2 | 276
CC(C)N(CCOc1cccc2nc(Cl)c3ccccc3c12)C(C)C | 88 to 91
O=C(OCc1cc2c3ccccc3[nH]c(=O)n2n1)c1ccccc1 | 262 to 265
CC(C)C[C@H](NC(=O)OCc1ccccc1)C(=O)N[C@H]1CCOC1O (some centres undefined) | 48 to 49
CC(=O)N1CC(CCN2CCC(c3ccccc3)CC2)c2cc3c(cc21)OCO3 (centres undefined) | 101 to 103
CCc1nn(CCCO)c(CC)c1Oc1cc(C#N)cc(C#N)c1 | 93 to 95
CC(C)(C)NC(=O)NCc1ccc2c(c1)C(=O)N(C1CCC(=O)NC1=O)C2=O (centres undefined) | 202 to 204
COc1ccc(Cc2sccc2OC2OC(COC(C)=O)C(OC(C)=O)C(OC(C)=O)C2OC(C)=O)cc1 (centres undefined) | 116 to 118
CS(=O)(=O)c1ccc(Oc2ccc(Cl)cc2)cc1 | 109 to 111
COc1ccc(N2CCN(C[C@@H](O)COc3cccc(-c4noc5ccsc45)c3)CC2)cc1 | 110 to 113
Cn1cc(C(N)=O)c(=O)c2sc(-c3ccccc3)cc21 | 266 to 268
Cc1nc(N)nc(N)c1/C=C/C(C)(C)c1ccc(C(F)(F)F)cc1 | 182 to 185
CCCCCCC(C)(C)c1ccc(C2CC(=O)C=C(C)C2)c(OCc2ccccc2)c1 (centres undefined) | 60 to 61
COc1ccc(-c2cc3ncccc3c(Cl)n2)cc1 | 126 to 127
COc1cc(C)cc(OC)c1-c1ccccc1C(=O)O | 187
Cc1cccc2c1nc(COc1ccc(Cl)cc1)n2CCC(C)CN(C)C (racemic) | 80 to 82
O=C(O)CCCc1cccc(NC(=O)[C@@H](CS)Cc2ccccc2)c1 | 149 to 152
CCC(COC)Nc1nc(C)nc(Cl)c1N (centres undefined) | 128 to 130
CCCOC(=O)c1cc(NC(=O)c2ccccc2O)cc(Br)c1O | 198 to 200

SMILES | melting point [°C]
CC1(C)CCOc2cc(C(=O)Nc3ccc(C(=O)O)cc3)ccc21 | 279 to 281
CCOC(=O)C(Cc1ccccc1)C(=O)Nc1ccc(CP(=O)(OCC)OCC)cc1 (centres undefined) | 115 to 116
CC(=O)N1CCC2(CC1)Cc1ccccc1O2 | 94 to 97
Nc1nc(OCc2ccccc2)c2ncn(CC(=O)O)c2n1 | 159 to 165
N#Cc1cccc(C(=O)c2ccccc2)c1 | 84 to 85
N#Cc1nc(-c2cnn(-c3ccc(C(F)(F)F)cc3[N+](=O)[O-])c2Br)[nH]c1C#N | 86 to 90
Cc1cc(OCc2ccccc2)ccc1CC#N | 51 to 52
Cc1nc(-c2cnc3[nH]cc(C(=O)N[C@@H](C(=O)N4CC(C#N)C4)C4CC4)c3n2)cn1-c1ccccc1 | 175 to 179
CCOC(=O)C(=NO)c1ccc(OC)cc1 | 81 to 82
N#Cc1ccc(OCCCCN2C(=O)c3ccccc3C2=O)cc1 | 129 to 130
O=C1NCCN(NC(=O)c2cc(OCc3ccccc3)c(OCc3ccccc3)cn2)C1=O | 231
C=CCNc1ccc(C(=O)O)cc1 | 144 to 146
Cc1cc2oc3ccccc3c(=O)c2cc1OCC(=O)O | 225 to 227
O=c1[nH]c2ncc(-c3cccc(-c4cn[nH]n4)c3)nc2n1CC1CCCCC1 | 299 to 301
CC(CCC(=O)C(C)(C)OO)C1CCC2C3CC=C4CC(OC5CCCCO5)CCC4(C)C3CCC12C (centres undefined) | 130 to 131
Cc1cc2ccccn2c1C(=O)C1CCc2nc[nH]c2C1 (centres undefined) | 260 to 264
COc1ccc(OC)c2c1C(=O)C=C(SCCC(=O)O)C2=O | 208 to 209
Cc1nc(C=O)c2n1-c1ccc(Cl)cc1C(c1ccccc1Cl)=NC2 | 237 to 239
CN(C)C1(Cc2ccccc2)CCC(=O)CC1 | 80 to 84
C[C@@H](Sc1ccc(O)cc1)C(=O)O | 138 to 139
C=CCNC(=O)c1ccccc1I | 105 to 106
Cc1ccc(C(=O)N[C@H](C)C(N)=O)cc1-n1c(C)cc(OCc2ccccc2CNC(=O)Nc2cc(C(C)(C)C)nn2-c2ccc(O)c(Cl)c2)c(Cl)c1=O | 192 to 193

SMILES | melting point [°C]
Cc1cc(C)c2c(c1)N[C@@H](C(=O)O)[C@@H](C)C2=O (relative stereo) | 156 to 157
COc1cc(C=C2C(=O)NC(=O)N2C)cc(OC)c1O | 194 to 196
CN1C(=O)C(F)ON=C(c2ccccc2)c2cc(Cl)ccc21 (centres undefined) | 218 to 220
COc1ccc(-c2nnc3c4ccccc4c(O)nn23)cc1 | 307 to 309
CC(=O)NC1CCCC1CC(Cl)C#N (centres undefined) | 114 to 117
CN1C(=O)C2(COc3cc4c(cc32)OCO4)c2c(C3CCOC3)cccc21 (centres undefined) | 182 to 184
CC(=CCc1c(C)nc(N)nc1O)c1cc(Cl)ccc1Cl | > 250
CSc1csc(NC(=O)c2ccc(OC(C)=O)cc2)n1 | 186 to 189
CN(C(=O)NCCCl)c1ccc(C(O)(C(F)(F)F)C(F)(F)F)cc1 | 120 to 121
CN(C(=O)c1ccc2nonc2c1)C1CCCC(=O)C1 (centres undefined) | 164 to 165
OC(c1cccc2nc3n(c12)CCCN3c1ccc(Cl)cc1Cl)C1CC1 (centres undefined) | 208 to 209
CCOC(=O)c1ccc2c(c1)C(=CCCI)CN2 | 81
CCOC(=O)C(=CNc1ccc(F)c(F)c1O)C(=O)OCC | 178 to 180
Cc1sc2c(Br)c3ccccc3c(-c3ccc(O)c(N)c3)c2c1C | 173 to 175
O=NSC1(C2OCCO2)CCCCC1 | 37 to 39
Nc1cc([N+](=O)[O-])c2c(c1N)CCCC2 | 181 to 182
CCCCCCCCCCCCCCCCCCOC(=O)CCCCCCCCCCCCCCCCC | 47 to 55
N#Cc1c(Cl)[nH]c2cccnc12 | > 250
CCOC(=O)N1CCC(n2cnc3ccc(-c4nnc(C)o4)cc32)CC1 | 179 to 180
CC12CCC(Oc3c(F)c(F)c(C(F)(F)F)c(F)c3F)=CC1=CCC1C2CCC2(C)C(OS(=O)(=O)C(F)(F)F)=CCC12 (centres undefined) | 106 to 107

Now from value to molecule:

melting point [°C] | SMILES
240 to 241 | CCOc1c(C)cccc1-c1nc2ccc(C(=O)O)cc2c(=O)[nH]1
292 | O=c1[nH]c2c3ccccc3ccc2n(CC2CC2)c1=O
190 to 193 | Cc1nc(-c2ccc(C(C)(C)C)cc2)sc1C(=O)O
> 250 | O=[N+]([O-])c1ccc2c(c1)Sc1cc(OC/C=C/I)ccc1N2
156 to 160 | O=C(C1CC=CCC1)N1c2ccccc2CCC1CN1CCN(c2cccc3[nH]ccc23)CC1 (centres undefined)
296 | COC(=O)c1cc(O)c2cc3c(O)cc(C(=O)OC)nc3c(C)c2n1
144 to 146 | O=C(O)C(Oc1ccccc1)c1ccc(Oc2ccccc2)cc1 (centres undefined)
143 to 144 | CCCc1nc2c(N)nc(C)c(C)c2n1CCCCCS(=O)(=O)c1ccccn1
277 to 279 | CCOC(=O)C1C(=O)c2cc(F)ccc2N=C1c1ccccc1 (centres undefined)
233 to 235 | CCOC(=O)c1ccc(Cc2nc3n(-c4c(Cl)cc(Cl)cc4Cl)[nH]c(C(C)C)c-3c(=O)n2)cc1
171 to 172 | NS(=O)(=O)C(F)(F)c1nnc(C(F)(F)S(N)(=O)=O)o1
210 to 211 | O=Cc1c(Br)n(C2OC(CO)C(O)C2O)c2cc(Cl)c(Cl)cc12 (centres undefined)
152 to 155 | C#Cc1cc(Nc2ncnc3cnc(NC(=O)/C=C/CN(C)C)cc23)ccc1F
123 to 124 | CC(=O)Nc1ccc(SCC(OS(C)(=O)=O)C(C)(C)C)cc1 (centres undefined)
128 | NC(=O)C1CN(Cc2ccccc2)CC1O (centres undefined)
165 to 168 | COc1ccc(Nc2nc(Cl)nc(Cl)n2)cc1
150 to 151 | COc1ccc2c(c1)c1c(n2C)CCCC1=O
136 | O=C(O)c1cc2cc(Cl)ccc2nc1NC(Cc1ccc(Oc2ccc3ccccc3n2)cc1)C(=O)O (centres undefined)
254 to 255 | COC(=O)c1coc(-c2ncn3c2CN(C)C(=O)c2sccc2-3)n1
157 to 160 | CCN1CCN(Cc2ccc(-c3ccc4c(Nc5cc(OC)c(Cl)cc5Cl)c(C#N)cnc4c3)o2)CC1

melting point [°C] | SMILES
96 to 97 | CCOC(=O)C1=CCCCC1S(=O)(=O)Nn1c(C)ccc1C (centres undefined)
272 to 276 | CC1(C)Oc2ccc(S(=O)(=O)Nc3ccccc3)cc2C(N2CCCCC2=O)C1O (centres undefined)
195 to 197 | Nc1ncnc2ncn([C@H]3C=C[C@@H](O)C3)c12 (racemic)
129 to 130 | O=C(NNc1ccccc1C(F)(F)F)c1c(F)cccc1F
100 to 101 | O=C(NCCCC(c1cc(F)ccc1F)S(=O)(=O)c1ccc(Cl)cc1)OCCI (centres undefined)
168 to 169 | COc1ccccc1C1(O)c2cc(NC(=O)CC(C)(C)C)c(C)c(C)c2OC1(C)C (centres undefined)
269 | O=C(O)c1ccc(N2C(=O)C3C4C=CC(CC4)C3C2=O)cc1 (centres undefined)
67 to 69 | C#CCSc1ncn(C(=O)N(CC)CC)n1
137 | Cc1cccc(C(=O)Nc2ccc(N3CCN(Cc4cccc(C#N)c4)CC3)cc2)c1-c1ccc(C(C)C)cc1
175 | CC1OC(=O)C(c2cccc(C(F)(F)F)c2)=C1O (centres undefined)
193 to 196 | COc1cc(-n2cccn2)ccc1-n1cc(OC)c(=O)c(C(C)=O)n1
132 to 133 | Nc1ccc(Sc2ccccn2)cc1C(F)(F)F
189 to 191 | COc1cc(N)ccc1S(=O)(=O)Nc1ccccc1C
210 to 211 | Cc1nn(-c2ccccn2)c2nc3ccccc3c(C#N)c12
99 to 100 | Cc1oc(-c2ccccc2)nc1CCc1ccc(CCCC2SC(=O)NC2=O)cc1 (centres undefined)
94.5 to 95.5 | O=C(O)CC(O)c1cccc(Cl)c1 (centres undefined)
155 to 156 | CCOc1nc(NC(C)C)c2cscc2n1
140 to 142 | CCCc1nn(C)c2c(=O)n(CCCOc3ccc(SC(C)(C)C(=O)O)cc3)c(C)nc12
158 to 160 | COC(=O)C1=C(C)NC(C)=C(C(=O)OCC2CCCO2)C1c1cccc(NC(C)=O)c1 (centres undefined)
132 to 134 | O=C1N(Cc2ccncc2)Cc2cccnc2N1c1cccc(Cl)c1
